The values that follow come from ChEMBL document CHEMBL4483862, “Open-source discovery of chemical leads for next-generation chemoprotective antimalarials” (2018).

For the assay, the system named is Plasmodium berghei. The assay can be described thus: Luciferase/luciferin-expressing antifolate-resistant parasites were used to infect a culture of HepG2 cells that were pre-incubated with compounds. Infected hepatocytes emit light due to the luciferase reaction. Assay results are presented as the percent inhibition of light emission compared to control. […]. It counts as functional. As to conditions: sporozoite; for IC90: read-out: LUCIFERASE INFECTION ASSAY - IC90.

Setting [1] is: read-out: LUCIFERASE INFECTION ASSAY - IC50.

By IC50 is commonly meant the midpoint of a concentration-inhibition curve. A word on the IC90: it is the concentration needed for an effect of 90%. As to `Cc1cc(C(=O)CNC(=O)Nc2ccccc2)c(C)n1-c1ccc(F)c(Cl)c1`, the IC90 was found to be 9.57 µM. In addition, the IC50 (HEPG2TOX_HILL_SLOPE 8.63, HEPG2TOX_R_SQUARED 0.403, PBLUC_HILL_SLOPE 1.87, PBLUC_R_SQUARED 0.488, read-out: LUCIFERASE INFECTION ASSAY - IC50) amounted to 2.96 µM.

Consider `Cc1ccc(C(=O)O)cc1NS(C)(=O)=O`, for which the 90% effect concentration (IC90) was above 10 µM. For the same compound, the IC50 under setting [1] is above 10 µM.

`Cc1ccc2c(c1)CCCN2C(=O)CCc1nc(O)c2ccccc2n1`: the IC90 is above 10 µM. The IC50 (HEPG2TOX_HILL_SLOPE 1.38, HEPG2TOX_R_SQUARED 0.978, PBLUC_HILL_SLOPE 0.881, PBLUC_R_SQUARED 0.443, read-out: LUCIFERASE INFECTION ASSAY - IC50) turned out to be 3.89 µM.

Consider `Oc1c(Br)cc(/C=C/c2nc3cc(Cl)ccc3o2)cc1Br`, for which the IC90 was above 10 µM. Besides, the IC50 (HEPG2TOX_HILL_SLOPE 9.25, HEPG2TOX_R_SQUARED 0.294, read-out: LUCIFERASE INFECTION ASSAY - IC50) is above 10 µM.

Take `CCCCCCCCc1nnc(NC(=O)c2nccnc2N)s1`: the IC90 worked out at 4.58 µM. Moreover, the IC50 (PBLUC_HILL_SLOPE 9.5, PBLUC_R_SQUARED 0.438, read-out: LUCIFERASE INFECTION ASSAY - IC50) was 3.63 µM.

Turning to `CC(=O)c1sc(-c2ccc(OCC(=O)Nc3ccc(S(=O)(=O)N4CCCC4)cc3)cc2)nc1C`, the IC90 was above 10 µM. The IC50 under setting [1] is above 10 µM.

On to `O=C(c1cccnc1)N1CCc2nc(NCc3cccc(Oc4ccccc4)c3)ncc2C1`, for which the IC90 is above 7.54 µM. Besides, the IC50 (HEPG2TOX_HILL_SLOPE 6.99, HEPG2TOX_R_SQUARED 0.608, read-out: LUCIFERASE INFECTION ASSAY - IC50) was above 7.54 µM.

Regarding `COc1ccccc1-n1nnnc1SCC(O)Cn1c2ccccc2c2ccccc21` (centres undefined), the IC90 is above 10 µM. Where the note is “FFLUC_HILL_SLOPE 2.23, FFLUC_R_SQUARED 0.596, PBLUC_HILL_SLOPE 13.3, PBLUC_R_SQUARED 0.223, read-out: LUCIFERASE INFECTION ASSAY - IC50”, the IC50 stood at 9.95 µM.

Turning to `O=c1ccc(-c2nc3c4c5c(sc4ncn3n2)CCCCC5)n[nH]1`, the IC90 amounted to 8.47 µM. Also, the IC50 (HEPG2TOX_HILL_SLOPE 0.965, HEPG2TOX_R_SQUARED 0.912, PBLUC_HILL_SLOPE 1.19, PBLUC_R_SQUARED 0.691, read-out: LUCIFERASE INFECTION ASSAY - IC50) was found to be 1.33 µM.

For the compound `COc1ccc(-c2csc3ncnc(NCC4(N5CCOCC5)CCCCC4)c23)cc1`, the IC90 turned out to be 9.48 µM. In addition, the IC50 (PBLUC_HILL_SLOPE 4.26, PBLUC_R_SQUARED 0.161, read-out: LUCIFERASE INFECTION ASSAY - IC50) was found to be 5.66 µM.

Regarding `Cc1ccc(Nc2nc(N)nc(CN(C)Cc3nc(=O)c4ccccc4[nH]3)n2)cc1`, the IC90 is 8.22 µM. For the same compound, the IC50 (PBLUC_HILL_SLOPE 2.75, PBLUC_R_SQUARED 0.503, read-out: LUCIFERASE INFECTION ASSAY - IC50) worked out at 3.7 µM.

Consider `O=C(COC(=O)c1cc(-c2ccc(OC(F)F)cc2)nc2ccccc12)Nc1nnc(-c2ccccc2)o1`, for which the IC90 was above 10 µM. The IC50 under setting [1] was above 10 µM.

For the compound `CCNC(=O)NC(=O)C(c1ccccc1)n1nc(C(=O)O)c2ccccc2c1=O` (centres undefined), the IC90 is above 10 µM. The IC50 under setting [1] is above 10 µM.

Regarding `O=C(Nc1cccc(C(F)(F)F)c1)Nc1ccc2nc(-c3ccoc3)nn2c1`, the IC90 worked out at 5.31 µM. Moreover, the IC50 (HEPG2TOX_HILL_SLOPE 8.17, HEPG2TOX_R_SQUARED 0.681, PBLUC_HILL_SLOPE 272, PBLUC_R_SQUARED 0.378, read-out: LUCIFERASE INFECTION ASSAY - IC50) was 5.27 µM.

As for `C=CCN(c1ccccc1)S(=O)(=O)c1cccc(C(=O)Nc2ccc(CCCC)cc2)c1`, the IC90 is above 10 µM. Further, under “FFLUC_HILL_SLOPE 3.89, FFLUC_R_SQUARED 0.431, PBLUC_HILL_SLOPE 2.64, PBLUC_R_SQUARED 0.773, read-out: LUCIFERASE INFECTION ASSAY - IC50”, the IC50 is 5.84 µM.

As for `CN(C)CCNc1nc(Oc2cccc3ccccc23)c2sccc2n1`, the 90% effect concentration (IC90) was above 9.05 µM. In addition, the IC50 (PBLUC_HILL_SLOPE 11.6, PBLUC_R_SQUARED 0.0493, read-out: LUCIFERASE INFECTION ASSAY - IC50) came to 8.94 µM.

For `Cc1noc(CSc2nnc(Nc3ccc(OC(F)(F)F)cc3)s2)n1`, the 90% effect concentration (IC90) was above 10 µM. Besides, where the note is “HEPG2TOX_HILL_SLOPE 3.01, HEPG2TOX_R_SQUARED 0.966, PBLUC_HILL_SLOPE 1.72, PBLUC_R_SQUARED 0.424, read-out: LUCIFERASE INFECTION ASSAY - IC50”, the IC50 was 4.45 µM.

With `Cc1c(-c2nc3ncc(Br)cc3[nH]2)cc(C#N)n1C`, the IC90 amounted to 9.96 µM. For the same compound, the IC50 (FFLUC_HILL_SLOPE 1.06, FFLUC_R_SQUARED 0.775, HEPG2TOX_HILL_SLOPE 12.7, HEPG2TOX_R_SQUARED 0.745, PBLUC_HILL_SLOPE 2.08, PBLUC_R_SQUARED 0.626, read-out: LUCIFERASE INFECTION ASSAY - IC50) came to 3.46 µM.

On to `NC(=S)N/N=C/c1ccc(Cl)cc1`, for which the IC90 is above 15.4 µM. The IC50 (HEPG2TOX_HILL_SLOPE 16.1, HEPG2TOX_R_SQUARED 0.56, PBLUC_HILL_SLOPE 1.65, PBLUC_R_SQUARED 0.115, read-out: LUCIFERASE INFECTION ASSAY - IC50) is above 15.4 µM.

Turning to `Cc1cc(C(=O)COC(=O)/C=C/c2cn(C)c(=O)n(C)c2=O)c(C)n1CCc1ccc(Cl)cc1`, the concentration for an effect of 90% (IC90) is above 10 µM. For the same compound, under “FFLUC_HILL_SLOPE 11.7, FFLUC_R_SQUARED 0.825, read-out: LUCIFERASE INFECTION ASSAY - IC50”, the IC50 was above 10 µM.

For the compound `Cc1cnc(NC(=O)Cc2ccc3c(c2)CCC(C)(C)O3)s1`, the IC90 is 4.6 µM. Moreover, where the note is “PBLUC_HILL_SLOPE 9.94, PBLUC_R_SQUARED 0.592, read-out: LUCIFERASE INFECTION ASSAY - IC50”, the IC50 was 3.68 µM.

As to `CCN(CC)CCCNS(=O)(=O)c1c(C)n[nH]c1C`, the IC90 was above 10 µM. Also, for the setting “PBLUC_HILL_SLOPE 10.1, PBLUC_R_SQUARED 0.0336, read-out: LUCIFERASE INFECTION ASSAY - IC50”, the IC50 was above 10 µM.

Turning to `Cn1cccc1C(=O)N1CC2ON=C(c3ccc(F)cc3)C2C1` (centres undefined), the IC90 was above 10 µM. The IC50 under setting [1] was above 10 µM.

In the case of `COc1ccc(OCC(O)CNCC23CC4CC(CC(C4)C2)C3)c(C(C)(C)C)c1` (centres undefined), the IC90 was determined as 9.84 µM. Further, the IC50 (PBLUC_HILL_SLOPE 14.7, PBLUC_R_SQUARED 0.42, read-out: LUCIFERASE INFECTION ASSAY - IC50) came to 8.48 µM.

Consider `c1ccc(-n2nnnc2Sc2ncnc3sc4c(c23)CCC4)cc1`, for which the IC90 is above 10 µM. The IC50 under setting [1] was above 10 µM.

Take `Cc1cc(C)cc(Nc2ncnc3ccsc23)c1`: the IC90 is above 10 µM. In addition, for the setting “HEPG2TOX_HILL_SLOPE 6.98, HEPG2TOX_R_SQUARED 0.366, PBLUC_HILL_SLOPE 11.4, PBLUC_R_SQUARED 0.0607, read-out: LUCIFERASE INFECTION ASSAY - IC50”, the IC50 is above 10 µM.

Turning to `COCC/N=c1\scc(-c2ccc(OC(F)F)cc2)n1/N=C/c1ccccc1Cl`, the 90% effect concentration (IC90) is above 10 µM. Also, the 50% inhibitory concentration (IC50) under setting [1] is above 10 µM.

In the case of `COc1ccccc1CNC(=O)Nc1nc(C(N)Cc2ccc(C(F)(F)F)cc2)cs1` (centres undefined), the IC90 was determined as 7.12 µM. Also, the IC50 (PBLUC_HILL_SLOPE 20.8, PBLUC_R_SQUARED 0.198, read-out: LUCIFERASE INFECTION ASSAY - IC50) came to 6.4 µM.

Turning to `CC(/N=c1\ccccn1C(=O)Nc1ccc(Cl)c(Cl)c1)c1ccco1` (centres undefined), the IC90 was 9.14 µM. Also, the IC50 under setting [1] was 6.62 µM.

For `O=C(Nc1nc2ccccn2c1C(=O)NC1CCCC1)c1ccc(C(F)(F)F)cc1`, the IC90 worked out at 0.325 µM. The IC50 (FFLUC_HILL_SLOPE 11.1, FFLUC_R_SQUARED 0.453, HEPG2TOX_HILL_SLOPE 0.561, HEPG2TOX_R_SQUARED 0.841, PBLUC_HILL_SLOPE 12.2, PBLUC_R_SQUARED 0.531, read-out: LUCIFERASE INFECTION ASSAY - IC50) turned out to be 0.271 µM.

As to `CCOc1c(Cl)cc(C2CC(=O)N(Cc3ccccc3)c3nc4ccccc4n32)cc1OC` (centres undefined), the IC90 was above 10 µM. The IC50 (HEPG2TOX_HILL_SLOPE 5.74, HEPG2TOX_R_SQUARED 0.547, PBLUC_HILL_SLOPE 2.97, PBLUC_R_SQUARED 0.551, read-out: LUCIFERASE INFECTION ASSAY - IC50) came to 5.06 µM.

On to `CCCc1c(C(=O)ONC(=N)c2ccc(C(C)(C)C)cc2)cnn1-c1ccccc1`, for which the IC90 is above 8.16 µM. Besides, the IC50 under setting [1] was above 8.16 µM.

Take `Cc1cc(NCc2c(F)cccc2Cl)ccc1N1CCCC1=O`: the IC90 is above 10 µM. Besides, the 50% inhibitory concentration (IC50) (PBLUC_HILL_SLOPE 14.5, PBLUC_R_SQUARED 0.0625, read-out: LUCIFERASE INFECTION ASSAY - IC50) was determined as 9.88 µM.

As for `COc1cc(NC(=O)c2ccc([N+](=O)[O-])o2)cc(C(F)(F)F)c1`, the IC90 is above 9.99 µM. For the same compound, the IC50 under setting [1] was above 9.99 µM.

For the compound `COc1ccc(-c2nn(-c3ccccc3)cc2C(=O)Nc2cc(C(F)(F)F)ccc2N2CCCCC2)cc1`, the IC90 was above 10 µM. In addition, the IC50 under setting [1] is above 10 µM.

On to `O=C(Nc1cccc(Cl)c1)Nc1ccccc1N1CCCC1`, for which the IC90 is above 10.4 µM. In addition, for the setting “HEPG2TOX_HILL_SLOPE 6.22, HEPG2TOX_R_SQUARED 0.342, PBLUC_HILL_SLOPE 2.56, PBLUC_R_SQUARED 0.455, read-out: LUCIFERASE INFECTION ASSAY - IC50”, the IC50 was determined as 6.9 µM.

For the compound `CC(=O)c1c(C)[nH]c(C(=O)COC(=O)c2cnn(-c3ccccc3)c2)c1C`, the IC90 was above 10 µM. For the same compound, under setting [1], the IC50 is above 10 µM.
